Experimental data from ChEMBL document CHEMBL1201862, “PubChem BioAssay data set” (2004).
Activity calls are given as the source filed them.

Tests used:
[1] = target: Cyclin-dependent kinase 5/CDK5 activator 1 (Homo sapiens, UniProt Q00535); assay: CDK5/p35 kinase inhibitors, dose response, biochemical, cherry-picked samples, set 2 (AID 504545)
Trypsin = Trypsin (Sus scrofa, UniProt P00761); assay: porcine trypsin inhibitors, dose response, selectivity assay for Rce1 protease inhibitor project, biochemical, quenched peptide fluorescence, cherry-pick (AID 488789)
Chain of Trypsin (P00761 whole entry): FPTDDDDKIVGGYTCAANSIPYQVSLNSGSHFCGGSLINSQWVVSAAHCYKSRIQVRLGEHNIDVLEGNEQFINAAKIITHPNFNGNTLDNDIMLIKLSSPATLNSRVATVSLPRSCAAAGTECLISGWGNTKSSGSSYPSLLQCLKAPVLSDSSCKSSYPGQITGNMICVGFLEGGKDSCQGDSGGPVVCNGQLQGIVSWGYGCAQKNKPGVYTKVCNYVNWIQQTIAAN

Cytochrome P450 3A4 = Cytochrome P450 3A4 (Homo sapiens, UniProt P08684); conditions: Potency;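 further: confirmatory qHTS run detecting inhibitors and substrates of CYP3A4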
Chain of Cytochrome P450 3A4 (P08684 whole entry): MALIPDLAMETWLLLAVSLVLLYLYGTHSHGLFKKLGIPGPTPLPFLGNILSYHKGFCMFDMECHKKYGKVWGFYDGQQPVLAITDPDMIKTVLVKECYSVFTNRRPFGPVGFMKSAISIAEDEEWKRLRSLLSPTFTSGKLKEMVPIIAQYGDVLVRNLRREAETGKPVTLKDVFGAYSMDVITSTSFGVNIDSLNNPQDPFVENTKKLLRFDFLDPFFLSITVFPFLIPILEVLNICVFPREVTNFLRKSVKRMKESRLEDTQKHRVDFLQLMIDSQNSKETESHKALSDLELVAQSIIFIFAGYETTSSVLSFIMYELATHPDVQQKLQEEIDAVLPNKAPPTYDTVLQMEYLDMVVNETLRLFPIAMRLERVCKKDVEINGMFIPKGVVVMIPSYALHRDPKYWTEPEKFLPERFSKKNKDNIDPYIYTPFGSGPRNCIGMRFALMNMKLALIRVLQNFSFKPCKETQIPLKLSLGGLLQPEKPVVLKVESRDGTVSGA

Cytochrome P450 2C9 = Cytochrome P450 2C9 (Homo sapiens, UniProt P11712); conditions: Potency
Chain of Cytochrome P450 2C9 (P11712 whole entry): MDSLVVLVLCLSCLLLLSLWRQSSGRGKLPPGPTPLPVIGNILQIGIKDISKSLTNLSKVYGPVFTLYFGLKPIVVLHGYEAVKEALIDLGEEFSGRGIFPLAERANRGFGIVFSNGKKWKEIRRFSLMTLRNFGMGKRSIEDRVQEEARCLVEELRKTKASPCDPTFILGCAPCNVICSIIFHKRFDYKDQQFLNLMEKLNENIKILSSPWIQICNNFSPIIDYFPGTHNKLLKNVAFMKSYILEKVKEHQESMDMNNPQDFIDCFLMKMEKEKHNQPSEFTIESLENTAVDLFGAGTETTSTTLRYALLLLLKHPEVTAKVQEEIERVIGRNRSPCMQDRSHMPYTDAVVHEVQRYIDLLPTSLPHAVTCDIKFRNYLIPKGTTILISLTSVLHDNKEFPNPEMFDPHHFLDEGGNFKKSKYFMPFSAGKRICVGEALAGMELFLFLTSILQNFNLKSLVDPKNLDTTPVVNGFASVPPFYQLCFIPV

[2] = target: T1, Eukaryotic translation initiation factor 2-alpha kinase 3 (Homo sapiens, UniProt Q9NZJ5); assay: Dose response cell-based high-throughput screening assay to measure PERK inhibition. [Related pubchem assays: 1416 ]; assay type: functional
T1 sequence (Q9NZJ5 whole entry): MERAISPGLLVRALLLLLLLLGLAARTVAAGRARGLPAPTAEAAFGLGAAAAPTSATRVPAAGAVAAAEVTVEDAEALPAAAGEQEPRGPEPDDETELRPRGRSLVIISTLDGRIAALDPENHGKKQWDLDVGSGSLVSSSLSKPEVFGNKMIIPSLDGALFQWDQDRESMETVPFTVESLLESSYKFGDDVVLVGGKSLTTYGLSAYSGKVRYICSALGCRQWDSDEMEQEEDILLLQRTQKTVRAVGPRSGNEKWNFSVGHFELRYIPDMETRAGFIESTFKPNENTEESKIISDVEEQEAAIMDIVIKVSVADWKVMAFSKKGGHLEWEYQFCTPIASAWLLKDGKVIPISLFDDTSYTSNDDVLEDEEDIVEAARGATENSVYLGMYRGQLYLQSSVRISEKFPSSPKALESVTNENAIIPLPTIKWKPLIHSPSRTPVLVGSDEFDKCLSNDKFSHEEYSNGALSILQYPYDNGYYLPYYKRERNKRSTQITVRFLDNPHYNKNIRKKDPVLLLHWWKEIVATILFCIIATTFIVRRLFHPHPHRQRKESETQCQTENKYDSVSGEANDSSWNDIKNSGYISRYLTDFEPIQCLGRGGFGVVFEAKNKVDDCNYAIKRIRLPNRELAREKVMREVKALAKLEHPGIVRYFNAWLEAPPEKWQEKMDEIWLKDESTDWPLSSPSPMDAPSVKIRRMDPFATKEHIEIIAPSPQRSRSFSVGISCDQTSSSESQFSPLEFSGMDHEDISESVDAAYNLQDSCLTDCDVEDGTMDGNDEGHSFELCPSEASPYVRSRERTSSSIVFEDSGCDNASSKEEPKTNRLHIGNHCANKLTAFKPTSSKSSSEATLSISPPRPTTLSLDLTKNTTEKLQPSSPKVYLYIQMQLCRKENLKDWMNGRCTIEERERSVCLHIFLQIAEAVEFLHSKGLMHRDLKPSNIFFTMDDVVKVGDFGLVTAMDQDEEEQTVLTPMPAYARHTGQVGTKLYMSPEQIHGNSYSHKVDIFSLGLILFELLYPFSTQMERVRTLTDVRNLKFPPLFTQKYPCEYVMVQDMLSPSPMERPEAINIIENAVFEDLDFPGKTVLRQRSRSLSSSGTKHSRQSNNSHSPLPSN

[3] = target: T1, Eukaryotic translation initiation factor 2-alpha kinase 3; assay: Counterscreen assay for PERK inhibitors: Dose response cell-based high throughput screening assay to measure inhibition of PERK at 6 hours. [Related pubchem assays: 1522, 1416 ]; assay type: functional
[4] = target: T2, Alkaline phosphatase, tissue-nonspecific isozyme (Homo sapiens, UniProt P05186)
T2 sequence (P05186 whole entry): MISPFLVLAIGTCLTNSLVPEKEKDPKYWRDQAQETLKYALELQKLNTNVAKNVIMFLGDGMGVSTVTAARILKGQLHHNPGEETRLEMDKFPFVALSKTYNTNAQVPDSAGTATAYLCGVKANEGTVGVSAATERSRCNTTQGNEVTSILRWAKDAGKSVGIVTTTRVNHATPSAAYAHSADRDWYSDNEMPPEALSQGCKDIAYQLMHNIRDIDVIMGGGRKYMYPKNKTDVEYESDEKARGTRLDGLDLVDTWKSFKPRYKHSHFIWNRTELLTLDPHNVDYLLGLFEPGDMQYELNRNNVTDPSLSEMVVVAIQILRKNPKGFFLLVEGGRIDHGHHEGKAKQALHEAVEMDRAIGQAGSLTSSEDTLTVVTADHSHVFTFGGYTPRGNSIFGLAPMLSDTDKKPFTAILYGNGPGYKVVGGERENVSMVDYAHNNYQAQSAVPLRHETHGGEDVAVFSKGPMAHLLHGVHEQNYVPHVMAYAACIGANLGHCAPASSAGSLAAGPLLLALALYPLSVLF

[5] = inhibitors of firefly luciferase expression or activity, dose response, H4 neuroglioma cells, luminescence (AID 1990); assay type: functional, cell-based
Prothrombin = Prothrombin (Homo sapiens, UniProt P00734); assay: Thrombin 1536 HTS Dose Response Confirmation. [Related pubchem assays: 1046 (Thrombin 1536 HTS; hits were confirmed in this assay)]; assay type: functional
[6] = inhibitors of SNCA 5'UTR-driven reporter translation, confirmation, H4 neuroglioma cells, luminescence (AID 1988); assay type: functional, cell-based
[7] = Luminescence Cell-Based Dose Response HTS to Identify Inhibitors of 5'UTR Stem-Loop Driven Prion Protein mRNA Translation in H4 Neuroglioblastoma Cells. [Related pubchem assays: 1827 (Project Summary), 1813 (Primary HTS)]; assay type: functional
[8] = target: G2/mitotic-specific cyclin-B1 (Homo sapiens, UniProt P14635); assay: G2/M cell cycle arrest in HeLa, late-stage follow-up, mechanism study for Wee1 degradation inhibitor project, FACS, panel member Cyclin B Degradation (AID 2088)
Chain of G2/mitotic-specific cyclin-B1 (P14635 whole entry): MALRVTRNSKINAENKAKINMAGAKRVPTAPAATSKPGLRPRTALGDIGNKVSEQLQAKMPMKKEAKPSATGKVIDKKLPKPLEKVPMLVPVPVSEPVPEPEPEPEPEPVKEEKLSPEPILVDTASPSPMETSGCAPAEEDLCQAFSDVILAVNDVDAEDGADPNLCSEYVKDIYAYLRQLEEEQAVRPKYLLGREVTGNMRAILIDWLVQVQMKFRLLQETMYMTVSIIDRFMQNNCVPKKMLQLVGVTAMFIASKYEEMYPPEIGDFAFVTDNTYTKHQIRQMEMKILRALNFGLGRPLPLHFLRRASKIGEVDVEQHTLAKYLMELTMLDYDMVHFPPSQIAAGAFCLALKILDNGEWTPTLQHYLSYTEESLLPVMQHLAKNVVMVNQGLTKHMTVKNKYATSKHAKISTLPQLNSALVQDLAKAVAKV

Wee1-like protein kinase = Wee1-like protein kinase (Homo sapiens, UniProt P30291); assay: G2/M cell cycle arrest in HeLa, late-stage follow-up, mechanism study for Wee1 degradation inhibitor project, FACS, panel member Wee1 Degradation (AID 2088)
[9] = cytotoxicity in HEK-293T cells, dose response, cytotoxicity control for TCR NF-kB inhibitor project, luminescence, T-cell screen hits (AID 489026); assay type: functional, cell-based;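 further: cells exposed to compound about 14 hours before the viability readout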
BJ [10] = assay: cytotoxicity toward BJ-TERT-LT-ST fibroblasts, dose response, cell-based, RAS-independent, luminescence (AID 1935); assay type: functional; conditions: Homo sapiens;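 further: BJ fibroblasts immortalized with TERT plus LT and ST oncogenes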
BJ [11] = assay: cells; assay type: functional, cell-based; conditions: Homo sapiens
[12] = target: T3, Calpain-2 catalytic subunit (Sus scrofa, UniProt P43367); assay: pig calpain II inhibitor potency, dose response, biochemical, fluorogenic peptide substrate (AID 1420); assay type: functional
T3 sequence (P43367 whole entry): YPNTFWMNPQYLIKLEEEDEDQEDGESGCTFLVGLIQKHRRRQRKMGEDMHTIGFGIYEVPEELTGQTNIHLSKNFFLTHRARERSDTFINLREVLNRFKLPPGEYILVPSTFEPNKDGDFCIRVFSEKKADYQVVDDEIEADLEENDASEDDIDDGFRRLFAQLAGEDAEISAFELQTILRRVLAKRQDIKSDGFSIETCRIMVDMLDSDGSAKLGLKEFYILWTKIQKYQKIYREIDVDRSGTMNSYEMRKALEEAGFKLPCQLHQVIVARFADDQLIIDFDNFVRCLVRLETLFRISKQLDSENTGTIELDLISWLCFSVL

[13] = growth suppression of beta-catenin-knockout colon cells, dose response, cell-based, HCT116, human colon tumor (AID 1045); assay type: functional;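 further: HCT116 colon tumor cells with beta catenin knocked out; cells exposed to compound for 60 hours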
[14] = growth suppression of PTEN-null colon cells, dose response, cell-based, HCT116 PTEN knockout (AID 1047); assay type: functional;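 further: HCT116 colon tumor cells with PTEN knocked out; cells exposed to compound for 60 hours before readout; potency for loss of cell viability measured by luminescence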
[15] = target: Sphingosine 1-phosphate receptor 2 (Homo sapiens, UniProt O95136); assay: Dose Response Cell Based Assay for Antagonists of the S1P2 Receptor. [Related pubchem assays: 856, 736 ]; assay type: functional
Chain of Sphingosine 1-phosphate receptor 2 (O95136 whole entry): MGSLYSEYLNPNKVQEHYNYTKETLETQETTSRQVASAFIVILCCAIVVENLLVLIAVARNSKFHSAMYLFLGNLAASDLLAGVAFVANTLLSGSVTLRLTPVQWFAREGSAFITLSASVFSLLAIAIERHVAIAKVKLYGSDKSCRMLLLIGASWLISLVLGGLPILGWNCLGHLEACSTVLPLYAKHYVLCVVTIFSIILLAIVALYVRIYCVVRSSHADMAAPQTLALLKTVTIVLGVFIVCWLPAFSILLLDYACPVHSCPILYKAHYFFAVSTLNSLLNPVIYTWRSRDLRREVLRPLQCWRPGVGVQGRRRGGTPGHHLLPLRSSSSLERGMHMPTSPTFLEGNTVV

BJ [16] = assay: cytotoxicity toward BJ-TERT fibroblasts, dose response, cell-based, RAS-independent, luminescence (AID 1933); assay type: functional; conditions: Homo sapiens
[17] = cytotoxicity toward DRD oncogenic fibroblasts, dose response, cell-based, non-viral oncogenic, luminescence (AID 1934); assay type: functional; conditions: Homo sapiens
[18] = target: NACHT, LRR and PYD domains-containing protein 3 (Homo sapiens, UniProt Q96P20); assay: NALP3 inhibitors in yeast, dose response, luminescent (AID 488799); assay type: functional
Chain of NACHT, LRR and PYD domains-containing protein 3 (Q96P20 whole entry, the tested form may be a part): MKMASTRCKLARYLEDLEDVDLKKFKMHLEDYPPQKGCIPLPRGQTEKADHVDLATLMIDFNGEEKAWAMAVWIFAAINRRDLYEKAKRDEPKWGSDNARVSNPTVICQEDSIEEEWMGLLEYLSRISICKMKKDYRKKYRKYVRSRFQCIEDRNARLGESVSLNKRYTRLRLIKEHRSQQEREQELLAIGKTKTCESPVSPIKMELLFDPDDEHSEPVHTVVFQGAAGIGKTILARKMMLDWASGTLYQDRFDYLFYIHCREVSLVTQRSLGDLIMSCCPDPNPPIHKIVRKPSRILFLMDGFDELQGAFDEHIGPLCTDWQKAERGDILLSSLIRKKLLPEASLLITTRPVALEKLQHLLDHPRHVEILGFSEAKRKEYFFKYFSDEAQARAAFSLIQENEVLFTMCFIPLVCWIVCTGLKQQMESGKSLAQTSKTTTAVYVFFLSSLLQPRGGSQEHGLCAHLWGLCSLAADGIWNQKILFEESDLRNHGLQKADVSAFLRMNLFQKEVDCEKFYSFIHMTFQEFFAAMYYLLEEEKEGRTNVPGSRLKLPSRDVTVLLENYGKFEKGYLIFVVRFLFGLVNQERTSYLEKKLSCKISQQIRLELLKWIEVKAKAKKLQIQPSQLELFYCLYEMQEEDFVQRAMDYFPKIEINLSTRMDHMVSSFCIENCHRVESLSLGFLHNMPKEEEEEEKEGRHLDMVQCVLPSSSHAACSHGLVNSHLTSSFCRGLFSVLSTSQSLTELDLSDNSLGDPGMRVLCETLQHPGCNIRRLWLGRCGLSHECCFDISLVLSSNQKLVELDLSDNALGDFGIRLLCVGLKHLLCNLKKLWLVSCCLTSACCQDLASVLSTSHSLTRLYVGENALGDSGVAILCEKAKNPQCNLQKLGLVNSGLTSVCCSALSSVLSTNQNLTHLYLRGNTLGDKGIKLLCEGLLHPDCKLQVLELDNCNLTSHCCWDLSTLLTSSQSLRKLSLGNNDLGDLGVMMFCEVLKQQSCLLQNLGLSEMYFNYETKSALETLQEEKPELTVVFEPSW

[19] = target: Lysosomal acid glucosylceramidase (Homo sapiens, UniProt P04062); assay: Dose response cell-based high throughput screening assay to identify enhancers of beta-glucosidase activity. [Related pubchem assays: 784 ]; assay type: functional
Chain of Lysosomal acid glucosylceramidase (P04062 whole entry): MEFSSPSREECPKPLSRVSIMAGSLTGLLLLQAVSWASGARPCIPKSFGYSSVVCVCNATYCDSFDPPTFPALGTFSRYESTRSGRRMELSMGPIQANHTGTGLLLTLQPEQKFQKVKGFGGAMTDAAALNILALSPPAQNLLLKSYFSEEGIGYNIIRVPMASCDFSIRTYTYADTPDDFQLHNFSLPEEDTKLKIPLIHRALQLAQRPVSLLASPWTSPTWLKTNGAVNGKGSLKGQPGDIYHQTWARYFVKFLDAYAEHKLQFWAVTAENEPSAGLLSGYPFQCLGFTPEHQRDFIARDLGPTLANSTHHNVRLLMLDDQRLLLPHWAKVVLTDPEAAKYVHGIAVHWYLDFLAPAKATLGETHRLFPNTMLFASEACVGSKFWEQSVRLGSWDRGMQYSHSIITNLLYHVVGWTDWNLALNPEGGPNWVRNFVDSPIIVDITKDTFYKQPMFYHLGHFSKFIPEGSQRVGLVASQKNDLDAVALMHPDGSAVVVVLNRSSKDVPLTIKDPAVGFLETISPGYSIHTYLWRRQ

For O=C1NCCCc2c1oc1ccc(O)cc21, which AC50 [1] is on record?
Its AC50 is 10.7 µM (active).

Which AC50 (Trypsin) does the source give for COc1cccc(-c2ccc(-c3noc(-c4ccccc4F)n3)c(OC)n2)c1 here?
The AC50 was 14.3 µM (active).

What does the source list for CC1(C)CCC[C@@]2(C)[C@@H]1CC[C@]1(C)OC(=O)C[C@@H]21?
AC50 (Cytochrome P450 3A4): 20 µM (inconclusive); AC50 (Cytochrome P450 2C9): 39.8 µM (inconclusive)

What does the source list for COc1ccc(C(=O)NCC(=O)OC2CCCCC2=O)cc1 (centres undefined)?
EC50 [2]: > 55.7 µM (not active); EC50 [3]: > 55.7 µM (not active)

Which EC50 [4] does the source give for CCn1c(C)nc2cc(C(=O)N/N=C(\C)c3ccc(OC)cc3O)ccc21 here?
The EC50 was > 100 µM (not active).

What about the EC50 [5] of the same compound?
The EC50 was 12.8 µM (active).

What about the IC50 (Prothrombin) of the same compound?
The IC50 was > 50 µM (not active).

And the EC50 [6]?
Its EC50 is 9.16 µM (active).

And the EC50 [7]?
The EC50 was 11.2 µM (active).

Which results are given for Cc1cc(O)nc(-n2nc(C)cc2NC(=O)c2ccccc2Cl)n1?
EC50 [8]: > 49.7 µM (inactive); EC50 (Wee1-like protein kinase): > 16.6 µM (active)

Which IC50 [9] does the source give for CCCCCCCCCn1c2c(c(=N)c3c1CCC3)CCC2 here?
The IC50 was 47.8 µM (inactive).

And the EC50 (BJ [10])?
The EC50 was 8.37 µM (inconclusive).

And the EC50 (BJ [11])?
Its EC50 is 2.07 µM (active).

What about the IC50 [12] of the same compound?
Its IC50 is 7.18 µM (active).

What about the EC50 [13] of the same compound?
Its EC50 is 0.561 µM (active).

And the EC50 [14]?
Its EC50 is 0.728 µM (active).

What about the IC50 [15] of the same compound?
Its IC50 is 9.03 µM (active).

What about the EC50 (BJ [16]) of the same compound?
Its EC50 is 1.15 µM (active).

And the EC50 [17]?
Its EC50 is 3.16 µM (active).

And the IC50 [18]?
Its IC50 is 9.02 µM (active).

With CCC(Sc1nc(C)cc(O)n1)C(=O)Nc1nc2c(s1)CCCC2 (centres undefined) as the compound, how does the EC50 [19] read?
Its EC50 is > 50 µM (not active).
